Laboratory results published in the supplement of paper PMC10307832.

Columns and labels:
Experiment in all cases: relative viability (nuclei count vs DMSO), 5 days (fraction); higher = more cells survive
Etoposide + Pictilisib = compound: COc1cc([C@@H]2c3cc4c(cc3[C@@H](O[C@@H]3O[C@@H]5CO[C@@H](C)O[C@H]5[C@H](O)[C@H]3O)[C@H]3COC(=O)[C@H]23)OCO4)cc(OC)c1O [Etoposide] + CS(=O)(=O)N1CCN(Cc2cc3nc(-c4cccc5[nH]ncc45)nc(N4CCOCC4)c3s2)CC1 [Pictilisib] (partner 1 µM)
Procedure, shortened: (§1)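 Five library-drug doses in √10 steps were combined with a fixed anchor-drug dose, or a single drug was given alone, by pin tool to lung cancer cell lines in 1536-well plates the day after seeding. Nuclei were stained and counted after 5 days. Relative viability is the nuclei count in treated wells over that in vehicle wells, taken as the median of duplicate plates.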

Etoposide + Olaparib = compound: COc1cc([C@@H]2c3cc4c(cc3[C@@H](O[C@@H]3O[C@@H]5CO[C@@H](C)O[C@H]5[C@H](O)[C@H]3O)[C@H]3COC(=O)[C@H]23)OCO4)cc(OC)c1O [Etoposide] + O=C(c1cc(Cc2n[nH]c(=O)c3ccccc23)ccc1F)N1CCN(C(=O)C2CC2)CC1 [Olaparib] (partner 8 µM)
Procedure, shortened: as §1

Etoposide + Palbociclib = compound: COc1cc([C@@H]2c3cc4c(cc3[C@@H](O[C@@H]3O[C@@H]5CO[C@@H](C)O[C@H]5[C@H](O)[C@H]3O)[C@H]3COC(=O)[C@H]23)OCO4)cc(OC)c1O [Etoposide] + CC(=O)c1c(C)c2cnc(Nc3ccc(N4CCNCC4)cn3)nc2n(C2CCCC2)c1=O [Palbociclib] (partner 0.5 µM)
Procedure, shortened: as §1

Bleomycin + Palbociclib = compound: CC1=C(N=C(N=C1N)[C@H](CC(=O)N)NC[C@@H](C(=O)N)N)C(=O)N[C@@H]([C@H](C2=CN=CN2)OC3C(C(C(C(O3)CO)O)O)OC4C(C(C(C(O4)CO)O)OC(=O)N)O)C(=O)N[C@H](C)[C@H]([C@H](C)C(=O)N[C@@H]([C@@H](C)O)C(=O)NCCC5=NC(=CS5)C6=NC(=CS6)C(=O)NCCC[S+](C)C)O [Bleomycin] + CC(=O)c1c(C)c2cnc(Nc3ccc(N4CCNCC4)cn3)nc2n(C2CCCC2)c1=O [Palbociclib] (partner 0.5 µM); details: main component drawn
Procedure, shortened: as §1

Cell Line	relative viability (Etoposide + Pictilisib; first compound 0.01 µM)	relative viability (Etoposide + Pictilisib; first compound 0.03162 µM)	relative viability (Etoposide + Pictilisib; first compound 0.1 µM)	relative viability (Etoposide + Pictilisib; first compound 0.3162 µM)	relative viability (Etoposide + Pictilisib; first compound 1 µM)	relative viability (Etoposide + Olaparib; first compound 0.01 µM)	relative viability (Etoposide + Olaparib; first compound 0.03162 µM)	relative viability (Etoposide + Olaparib; first compound 0.1 µM)	relative viability (Etoposide + Olaparib; first compound 0.3162 µM)	relative viability (Etoposide + Olaparib; first compound 1 µM)	relative viability (Etoposide + Palbociclib; first compound 0.01 µM)	relative viability (Etoposide + Palbociclib; first compound 0.03162 µM)	relative viability (Etoposide + Palbociclib; first compound 0.1 µM)	relative viability (Etoposide + Palbociclib; first compound 0.3162 µM)	relative viability (Etoposide + Palbociclib; first compound 1 µM)	relative viability (Bleomycin + Palbociclib; first compound 0.01 µM)	relative viability (Bleomycin + Palbociclib; first compound 0.03162 µM)	relative viability (Bleomycin + Palbociclib; first compound 0.1 µM)	relative viability (Bleomycin + Palbociclib; first compound 0.3162 µM)	relative viability (Bleomycin + Palbociclib; first compound 1 µM)
NCI-H727	0.327	0.469	0.215	0.444	0.35	0.681	0.632	0.55	0.689	0.478	0.67	0.675	0.581	0.689	0.767	0.346	0.721	0.654	0.526	0.636
NCI-H838	0.461	0.544	0.284	0.329	0.186	0.757	0.782	0.64	0.31	0.2	0.172	0.238	0.169	0.226	0.244	0.22	0.173	0.169	0.153	0.129
NCI-H1355	0.492	0.552	0.276	0.284	0.144	0.682	0.769	0.574	0.332	0.221	0.423	0.473	0.275	0.355	0.281	0.402	0.382	0.396	0.253	0.221
NCI-H1395	0.618	0.665	0.591	0.551	0.446	0.444	0.453	0.458	0.479	0.397	0.625	0.595	0.555	0.638	0.545	0.518	0.549	0.499	0.341	0.342
NCI-H1437	0.588	0.504	0.21	0.209	0.122	0.597	0.646	0.56	0.394	0.323	0.278	0.352	0.279	0.293	0.269	0.306	0.224	0.293	0.256	0.221
NCI-H1650	0.506	0.572	0.378	0.196	0.139	0.797	0.652	0.723	0.341	0.198	0.376	0.36	0.26	0.199	0.168	0.215	0.222	0.153	0.176	0.191
NCI-H1651	0.49	0.681	0.436	0.178	0.0908	0.175	0.188	0.202	0.138	0.0965	0.512	0.515	0.414	0.359	0.178	0.488	0.454	0.464	0.288	0.252
NCI-H1666	0.469	0.233	0.325	0.21	0.205	0.702	0.642	0.758	0.529	0.497	0.618	0.639	0.662	0.592	0.506	0.599	0.655	0.594	0.578	0.572
NCI-H1734	0.468	0.47	0.266	0.341	0.272	0.285	0.607	0.589	0.373	0.263	0.358	0.374	0.312	0.306	0.242	0.29	0.245	0.27	0.207	0.172
NCI-H1755	0.434	0.473	0.316	0.426	0.269	0.838	0.945	0.791	0.799	0.422	0.436	0.397	0.454	0.429	0.456	0.433	0.435	0.457	0.408	0.428
NCI-H1792	0.261	0.261	0.129	0.216	0.147	0.348	0.248	–	0.212	0.152	0.579	0.636	0.598	0.606	0.461	0.613	0.624	0.592	0.482	0.362
NCI-H1793	0.321	0.433	–	0.313	0.243	–	0.861	0.608	0.454	0.295	–	0.321	0.2	0.305	0.29	0.316	0.302	0.313	0.216	0.19
NCI-H1915	0.934	1.14	0.634	0.782	0.481	0.261	0.268	0.309	0.213	0.194	0.471	0.569	0.506	0.459	0.375	0.419	0.389	0.332	0.173	0.131
NCI-H1944	0.362	0.39	0.27	0.294	0.222	0.378	0.417	0.305	0.265	0.197	0.315	0.358	0.233	0.231	0.198	0.228	0.188	0.218	0.156	0.13
NCI-H1975	0.304	0.328	0.225	0.276	0.168	0.688	1.02	0.881	0.487	0.252	0.548	0.665	0.521	0.331	0.281	0.377	0.398	0.397	0.226	0.178
NCI-H1993	0.804	0.802	0.806	0.915	0.66	–	0.884	0.777	0.658	0.54	–	0.773	0.481	0.659	0.482	0.579	0.525	0.535	0.451	0.329
NCI-H2009	0.693	0.898	0.54	0.543	0.236	0.64	0.627	0.692	0.45	0.275	0.203	0.213	0.145	0.25	0.148	0.202	0.164	0.215	0.16	0.192
NCI-H2023	0.225	0.255	0.145	0.124	0.0878	0.415	0.452	0.356	0.137	0.111	0.312	0.201	0.351	0.201	0.173	0.333	0.302	0.25	0.125	0.13
NCI-H2085	0.513	0.491	0.324	0.433	0.287	0.755	0.731	0.746	0.375	0.3	0.461	0.477	0.513	0.409	0.323	0.443	0.455	0.432	0.324	0.355
NCI-H2087	–	1.09	0.551	0.543	0.235	0.579	0.564	0.489	0.319	0.161	0.211	0.19	0.214	0.215	0.193	0.222	0.236	0.221	0.118	0.147
NCI-H2126	0.536	0.55	0.419	0.392	0.332	0.882	0.938	0.658	0.585	0.336	0.32	0.39	0.316	0.368	0.34	0.338	0.384	0.298	0.33	0.319
NCI-H2170	0.315	0.306	–	0.336	0.255	0.581	0.621	–	0.514	0.29	0.382	0.427	–	0.36	0.319	0.328	0.342	0.307	0.274	0.259
NCI-H2228	0.351	0.411	0.167	0.229	0.109	0.586	0.524	0.776	0.296	0.146	0.705	0.765	0.435	0.32	0.145	0.719	0.683	0.465	0.411	0.226
NCI-H2347	0.921	0.757	0.309	0.285	0.392	0.55	0.543	0.58	0.353	0.411	0.314	0.397	0.375	0.381	0.346	0.43	0.479	0.459	0.359	0.338
NCI-H2405	0.455	0.508	0.268	0.399	0.315	0.851	0.819	0.701	0.562	0.293	0.536	0.549	0.355	0.477	0.328	0.424	0.502	0.544	0.346	0.323
NCI-H3122	0.687	0.74	0.387	0.576	0.349	0.456	0.587	0.634	0.297	0.21	0.218	0.219	0.164	0.182	0.165	0.198	0.186	0.18	0.132	0.148
PC-3 [JPC-3]	0.689	0.819	0.576	0.785	0.497	0.992	0.928	1.14	1.07	0.794	0.481	0.493	0.545	0.56	0.526	0.487	0.596	0.525	0.53	0.488
PC-14	0.598	0.638	0.543	0.371	0.289	0.239	0.204	0.31	0.135	0.123	0.447	0.594	0.652	0.289	0.125	0.193	0.174	0.127	0.0449	0.0437
RERF-LC-KJ	0.533	0.586	0.459	0.529	0.365	0.827	0.877	0.861	0.633	0.417	1.04	1.19	0.918	0.912	0.606	0.678	0.537	0.444	0.185	0.18
SK-LU-1	0.603	0.597	0.308	0.277	0.174	0.407	0.511	0.348	0.238	0.193	0.381	0.397	0.319	0.247	0.22	0.356	0.461	0.35	0.312	0.332
